Reference: US11536729B2, “Method of identifying novel protein aggregation inhibitors based on chemical kinetics” (Cambridge Enterprise Limited, priority 2016, dated 2022)

Experiments:
Assay type in all cases: biochemical
[1] = molecular target: T1, Aβ42 (Homo sapiens, UniProt P05067); test: ThT-based Aβ42 aggregation kinetics under quiescent (unseeded) conditions; details: for change of inhibitory activity relative to parent scaffold: structural comparison among RAR/RXR modulators; for ranking of efficacy within set: 2 μM Aβ42
T1 construct: The recombinant Aβ (M1-42) peptide; made in house; host or cells: E. coli BL21 Gold (DE3)
Description: Solutions of monomeric peptides were prepared by dissolving the lyophilized Aβ42 peptide in 6 M GuHCl. Monomeric forms were purified from potential oligomeric species and salt using a Superdex 75 10/300 GL column (GE Healthcare) at a flowrate of 0.5 mL/min, and were eluted in 20 mM sodium phosphate buffer, pH 8 supplemented with 200 μM EDTA and 0.02% NaN3. The center of the peak was collected and the peptide concentration was determined from the absorbance of the integrated peak area using ε280=1400 l mol^−1 cm^−1. The obtained monomer was diluted with buffer to the desired concentration and supplemented with 20 μM Thioflavin T (ThT) from a 1 mM stock. All samples were prepared in low binding eppendorf tubes on ice using careful pipetting to avoid introduction of air bubbles. Each sample was then pipetted into multiple wells of a 96-well half-area, low-binding, clear bottom and PEG coating plate (Corning 3881), 80 μL per well.
We verified that the addition of 1% DMSO in the reaction mixture has no effect on Aβ42 aggregation.
(§1) Assays were initiated by placing the 96-well plate at 37° C. under quiescent conditions in a plate reader (Fluostar Omega, Fluostar Optima or Fluostar Galaxy, BMGLabtech, Offenburg, Germany). The ThT fluorescence was measured through the bottom of the plate with a 440 nm excitation filter and a 480 nm emission filter. The ThT fluorescence was followed for three repeats of each sample.
The time evolution of the total fibril mass concentration, M(t), is described by the following integrated rate law (30, 32)
(§2) [formula] where the kinetic parameters B±, C±, κ, κ∞ and ? are functions of the two ? combinations of the microscopic rate constants k+k2 and knk2, where kn, k+ and k2 are the primary nucleation, elongation and secondary nucleation rate constants, respectively.
The time evolution of the total fibril mass concentration, M(t), is described by the following integrated rate law
as §2, with “two” for “two ?”, “respectively. Aβ42 alone in 1% DMSO was first modeled to obtain the k+k2 and knk2 combined microscopic rate constants.” for “respectively.”
Target sequence in this assay (P05067 671-713): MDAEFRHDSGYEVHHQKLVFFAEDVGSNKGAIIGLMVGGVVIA
With the introduction of different small molecules, the aggregation process can be inhibited by one or more individual microscopic reactions. Microscopic rate constants k+k2 and knk2 were obtained in the presence of the molecules, and compared to the initial values of Aβ42 alone. This comparison allows one to understand which rate was mainly perturbed, as well as the potency of the compounds (by relative changes of their microscopic rates) with respect to each other.

[2] = molecular target: T1, Aβ42; test: ThT Aβ42 aggregation kinetics with 1-5% pre-formed fibril seeds (surface-catalyzed secondary nucleation); details: 2 μM Aβ42, 1-5% seeds, 0.5-fold excess
Description: For the seeded experiments, preformed fibrils were prepared just prior to the experiment. Kinetic experiments were set up just as above for a […] Aβ42 samples in 20 mM sodium phosphate buffer, pH 8 with 200 μM EDTA, 0.02% NaN3 and 20 μM ThT. The ThT fluorescence was monitored for 3 hours to verify the formation of fibrils.
(§3) Samples were then collected from the wells into low-binding tubes and sonicated for 2 min in a sonicator bath at room temperature. Under the considered conditions (i.e. 4 μM Aβ42), the monomer concentration is negligible at equilibrium (31). The final concentration of fibrils, in monomer equivalents, was considered equal to the initial concentration of monomer. Fibrils were then added to freshly prepared monomer in order to reach either 5% or 10% fibrils final concentration.
as §1, with “sample. […]” for “sample.”
Target sequence in this assay (P05067 672-713 limits assumed): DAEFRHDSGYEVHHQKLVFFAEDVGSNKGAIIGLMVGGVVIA
For the seeded experiments, preformed fibrils were prepared just prior to the experiment. […] The ThT fluorescence was monitored for 3 hours to verify the formation of fibrils. […]

[3] = molecular target: T1, Aβ42; test: ThT Aβ42 aggregation kinetics with 10% pre-formed fibril seeds (elongation dominant); details: 2 μM Aβ42, 5-fold excess
Description: as §3
as §1, with “sample. […]” for “sample.”
Target sequence in this assay (P05067 672-713 limits assumed): as above

Compound	change of inhibitory activity relative to parent scaffold [1]	ranking of efficacy within set [1]	effect on Aβ42 aggregation of linker variants of bexarotene [1]	also measured
CC1(C)CC=C(c2cnc3ccccc3c2)c2cc(C(=O)Nc3ccc(C(=O)O)cc3)ccc21 [BMS195614]	substantial increase in primary nucleation inhibitory activity			
CC1(C)CCC(C)(C)c2cc(C3(c4ccc(C(=O)O)cc4)OCCO3)ccc21 [SR11237]			delayed the aggregation of Aβ42 to different extent	
CC1(C)C(=O)C(C)(C)c2cc(C(=O)Nc3ccc(C(=O)O)cc3)ccc21 [BMS753]				delay / effect on Aβ42 aggregation ([1]; 2 μM Aβ42, 3-fold excess): did not show any effect; effect on aggregation kinetics of Aβ42 ([1]; fold-excesses as high as 5): did not show any effect
COc1ccc(-c2ccc3cc(C(=O)O)ccc3c2)cc1C12CC3CC(CC(C3)C1)C2 [Adapalene]		most effective molecules within Set C		
CC1(C)CCC(C)(C)c2cc(C3(c4ccc5cc(C(=O)O)ccc5c4)SCCS3)ccc21 [MM11253]		most effective molecules within Set C		
CC1(C)CCC(C)(C)c2cc(NC(=O)c3ccc(C(=O)O)cc3)ccc21 [Tamibarotene]			delayed the aggregation of Aβ42 to different extent	
CCCCCOc1cc2c(cc1-c1cc(/C=C/C(=O)O)ccc1O)C(C)(C)CCC2(C)C [UVI3003]		most effective molecule within Set B		decrease of rate of surface-catalyzed secondary nucleation (k2) [2]: 75%; effect on aggregation kinetics / elongation with 10% fibril seeds [3]: no effect could be observed
NCCCS(=O)(=O)O [tramiprosate]				effect on Aβ42 aggregation ([1]; even when present in 20-fold excess): no effects

Second part, led by results:

change of inhibitory activity relative to parent scaffold [1]	ranking of efficacy within set [1]	Compound	effect on Aβ42 aggregation of linker variants of bexarotene [1]	also measured
same effect		CC1(C)CC=C(C#Cc2ccccc2)c2cc(/C=C/c3ccc(C(=O)O)cc3)ccc21 [BMS493]		
increase in inhibitory activity		C/C(=C\c1ccc(C(=O)O)cc1)c1ccc2c(c1)C(C)(C)CCC2(C)C [TTNPB]	delayed the aggregation of Aβ42 to different extent	
